Read-outs that look alike come from different tables or passages of the source.
Tests used:
[1] = target: Cytochrome P450 2C19 (Homo sapiens (Human), UniProt P33261); test: Cytochrome P450 inhibition, 2C19; type: in vitro ADME
Description: (§1) Rapid screening for cytochrome P450 inhibitors is part of the current paradigm for avoiding development of drugs likely to give clinical pharmacokinetic drug-drug interactions and associated toxicities. There are commercially available assays for such screenings. For example, BD Biosciences (http://www.bdbiosciences.com/index.shtml) provides a technical bulletin describing a detailed, step-by-step procedure for the performance of the high throughput cytochrome P450 inhibition testing method.

[2] = Permeability; type: in vitro ADME; settings: for Papp: Caco-2
Description: Permeability assays using the Caco-2 colon carcinoma cell line are being used throughout the pharmaceutical industry to estimate the ability of potential drug compounds to cross the intestinal epithelium. Caco-2 cell permeability studies are performed using Caco-2 cell monolayers grown on microporous membranes in multiwell insert systems. With the inserts suspended in the wells of multiwell plates, test compounds can be added to either the upper (apical) or lower (basolateral) chamber to measure permeability in the absorptive (apical to basolateral) or secretive (basolateral to apical) directions. Samples are then taken from the opposite chamber at various time intervals to measure the amount of test compound that has crossed the cell monolayer. A representative method to generate permeability data similar to that in Table 3 can be found in Alsenz, J; Haenel, E. “Development of a 7-Day, 96-Well Caco-2 Permeability Assay with High-Throughput Direct UV Compound Analysis.” Pharmaceutical Research 2003 20(12): p 1961-1969.
Parallel artificial membrane permeability assay (PAMPA) utilizes a simple phospholipid-coated filter disc to measure membrane permeability. It was developed as an alternative to the low throughput. Caco-2 cell permeability assay used to correlate passive permeability with in vivo oral absorption. A representative publication disclosing this method is Kerns, E H; Di, L; Petusky, S; Farris, M; Ley, R; Jupp, P. “Combined application of parallel artificial membrane permeability assay and Caco-2 permeability assays in drug discovery.” J. Pharma Sci. 2004, 93 (6), pages 1440-53.
Cell culture methods (e.g. Caco-2, HT-29 and MDC) and physicochemical methods such as PAMPA and immobilized artificial membrane (IAM) columns are known in the art and can be used to obtain data such as that in Table 3. Hidalgo, I J; “Assessing the absorption of new pharmaceuticals.” Curr Top Med. Chem. 2001 November; 1(5): p 385-401.

[3] = test system: Renal Proximal Tubule Epithelial Cells; test: Renal Proximal Tubule Epithelial Cell Toxicity Screen; type: cell-based
Outline: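 Normal renal epithelial cells seeded at 1.5×10^4 cells/mL, grown 24 h at 37 °C/5% CO2, then exposed to compounds for 96 h; a T=0 plate was read at dosing. Viability by Alamar Blue fluorescence after 4 h, with Tween 20 and DMSO wells as positive and negative controls.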

[4] = Hepatic clearance, human; type: in vitro ADME
Description: Clearance of drug by the liver will depend on the rate of delivery of drug to the liver (the hepatic blood flow) and on the efficiency of removal of drug which is presented to it (the extraction ratio). The hepatic clearance of compounds can be determined by standard methods known in the art. Such methods are described in, for example, Naritomi, Y; Terashita, S; Kagayama, A; Sugiyama, Y. “Utility of Hepatocytes in Predicting Drug Metabolism: Comparison of Hepatic Intrinsic Clearance in Rats and Humans in Vivo and in Vitro.” 2003, 31 (5): pages 580-588.

[5] = target: Cytochrome P450 3A4 (Homo sapiens (Human), UniProt P08684); test: Cytochrome P450 inhibition, 3A4; type: in vitro ADME
Cytochrome P450 3A4, sequence (P08684 whole entry): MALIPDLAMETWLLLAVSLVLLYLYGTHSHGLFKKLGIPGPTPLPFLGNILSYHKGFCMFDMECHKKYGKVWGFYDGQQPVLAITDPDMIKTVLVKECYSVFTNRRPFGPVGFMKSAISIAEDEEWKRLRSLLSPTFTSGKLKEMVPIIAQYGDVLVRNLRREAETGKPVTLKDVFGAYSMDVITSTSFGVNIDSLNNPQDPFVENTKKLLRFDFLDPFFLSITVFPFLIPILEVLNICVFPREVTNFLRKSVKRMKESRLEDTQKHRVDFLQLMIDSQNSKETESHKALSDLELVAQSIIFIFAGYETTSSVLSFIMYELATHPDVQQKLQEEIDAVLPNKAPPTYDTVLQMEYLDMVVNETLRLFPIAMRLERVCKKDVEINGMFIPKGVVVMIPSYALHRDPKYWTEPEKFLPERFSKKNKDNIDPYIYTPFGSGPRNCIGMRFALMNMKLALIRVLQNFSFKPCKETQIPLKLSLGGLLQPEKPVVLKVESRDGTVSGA
Description: as §1

[6] = target: Cytochrome P450 2C9 (Homo sapiens (Human), UniProt P11712); test: Cytochrome P450 inhibition, 2C9; type: in vitro ADME
Cytochrome P450 2C9, sequence (P11712 whole entry): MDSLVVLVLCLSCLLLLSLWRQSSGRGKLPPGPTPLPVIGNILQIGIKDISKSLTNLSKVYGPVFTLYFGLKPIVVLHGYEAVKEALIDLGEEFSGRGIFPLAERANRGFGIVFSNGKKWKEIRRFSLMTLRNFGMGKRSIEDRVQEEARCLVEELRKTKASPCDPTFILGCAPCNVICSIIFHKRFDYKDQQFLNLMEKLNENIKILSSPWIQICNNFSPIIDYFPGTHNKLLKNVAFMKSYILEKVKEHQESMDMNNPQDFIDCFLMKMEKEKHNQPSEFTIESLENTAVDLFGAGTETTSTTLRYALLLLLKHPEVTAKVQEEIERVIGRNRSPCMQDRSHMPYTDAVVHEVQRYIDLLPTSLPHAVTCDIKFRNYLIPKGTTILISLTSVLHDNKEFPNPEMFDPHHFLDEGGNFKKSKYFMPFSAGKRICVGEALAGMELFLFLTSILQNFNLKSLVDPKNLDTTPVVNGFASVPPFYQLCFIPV
Description: as §1

[7] = target: hsDHODH (Homo sapiens (Human), UniProt Q02127); test: DCIP assay, hsDHODH; type: biochemical
hsDHODH, sequence (Q02127 29-395 limits assumed): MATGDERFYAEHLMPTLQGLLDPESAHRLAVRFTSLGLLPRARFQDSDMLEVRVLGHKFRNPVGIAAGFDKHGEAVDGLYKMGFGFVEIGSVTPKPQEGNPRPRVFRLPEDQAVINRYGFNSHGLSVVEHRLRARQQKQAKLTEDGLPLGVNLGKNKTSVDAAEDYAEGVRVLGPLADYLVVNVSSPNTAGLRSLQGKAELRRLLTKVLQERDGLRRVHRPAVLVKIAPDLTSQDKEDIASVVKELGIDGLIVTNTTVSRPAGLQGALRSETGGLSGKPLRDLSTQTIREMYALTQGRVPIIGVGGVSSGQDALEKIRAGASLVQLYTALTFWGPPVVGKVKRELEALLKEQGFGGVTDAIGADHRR

[8] = test system: P. falciparum Dd2; test: Inhibition of in vitro P. falciparum culture, [3H]-hypoxanthine uptake, Dd2; type: cell-based; settings: for EC50: read-out: Dd2 EC50; for IC50: read-out: Dd2 IC50
Outline: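 Parasite growth inhibition measured as relative reduction of [3H]-hypoxanthine uptake in in vitro cultures. Values from non-linear regression fit, using relative growth velocity in place of product-formation rate.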

[9] = Table 2b, read-out: Hu (human DHODH) IC50
[10] = Table 3, DCIP assay, 20 nM hsDHODH, read-out: hsDHODH IC50
[11] = Plasmodium falciparum, DD2, Table 2b
[12] = Plasmodium falciparum, DD2, Table 3, [3H]-hypoxanthine uptake
[13] = Table 3, [3H]-hypoxanthine uptake

Cytochrome P450 2C19, sequence (P33261 whole entry): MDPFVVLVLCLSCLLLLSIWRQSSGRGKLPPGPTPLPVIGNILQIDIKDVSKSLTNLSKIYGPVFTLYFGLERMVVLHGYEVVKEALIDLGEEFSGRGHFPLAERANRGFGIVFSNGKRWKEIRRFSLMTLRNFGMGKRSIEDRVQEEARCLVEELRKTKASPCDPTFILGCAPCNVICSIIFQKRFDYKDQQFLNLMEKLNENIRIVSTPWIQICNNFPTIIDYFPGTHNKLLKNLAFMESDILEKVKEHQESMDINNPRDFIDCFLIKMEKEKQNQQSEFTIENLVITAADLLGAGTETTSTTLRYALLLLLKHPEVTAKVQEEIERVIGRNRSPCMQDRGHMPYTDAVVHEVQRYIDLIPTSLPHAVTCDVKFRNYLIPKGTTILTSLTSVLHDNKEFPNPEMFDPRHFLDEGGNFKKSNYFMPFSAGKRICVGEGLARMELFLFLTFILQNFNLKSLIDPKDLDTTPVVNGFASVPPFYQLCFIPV

Compound	Cytochrome P450 Inhibition, 2C19 [1] [in 2C19 μM]	Papp [2] [×10⁻⁶ cm/s]	cytotoxicity in kidney epithelial cells [3]	microsomal CLint [4] [µL/min/mg]	Cytochrome P450 Inhibition, 3A4 [5] [in 3A4 μM]	Cytochrome P450 Inhibition, 2C9 [6] [in 2C9 μM]	IC50 [7, 9] [µM]	IC50 [7, 10] [µM]	EC50 [8, 11] [µM]	IC50 [8, 12] [µM]	IC50 [8, 13] [µM]	IC50 ([8]; Plasmodium falciparum, DD2, Erythrocyte, [3H]-hypoxanthine uptake by parasite infected erythrocytes) [µM]	IC50 ([7]; DCIP assay, 200 μM L-DHO, 18 μM CoQD, 100 μM DCIP, 20 nM enzyme, read-out: hsDHODH IC50) [µM]	EC50 ([8]; Table 2b) [µM]	Permeability [2] [cm/sec × 10^−6]	CC50 ([3]; 4 days exposure, Alamar Blue, read-out: Kidney Epithelial LC50) [µM]
CCCNC(=O)c1ccc(-n2c(C)nc3ccccc32)s1 [Compound 12, 5-(2-methyl-1H-benzo[d]imidazol-1-yl)-N-propylthiophene-2-carboxamide]	>5.0	65	No adverse cytotoxicity	33	>5.0	>5.0	> 30	> 30								
CCCNC(=O)c1ccc(-n2cnc3ccccc32)s1 [Compound 11, 5-(1H-benzo[d]imidazol-1-yl)-N-propylthiophene-2-carboxamide]	>5.0	32		49	>5.0	>5.0	> 30	> 30	1.1	0.955	1.25					
CCCNC(=O)c1ccc(-n2c(C)cc3ccccc32)s1 [Compound 1, 5-(2-methyl-1H-indol-1-yl)-N-propylthiophene-2-carboxamide]							> 30	> 30	0.493	0.25		0.29	> 30			
5-(1H-indol-1-yl)-N-propylthiophene-2-carboxamide [Compound 7]							> 30	> 30			0.23			1.03	52	50
